Here are results for one compound from ChEMBL document CHEMBL5257025, “Artemisinin-Derived Dimers: Potent Antimalarial and Anticancer Agents” (J Med Chem, 2016).

In the experiment the test system is Plasmodium berghei. In words: In vivo antimalarial activity against Plasmodium berghei infected mouse model assessed as survival time at 8 mg/kg, po in presence of Mefloquine hydrochloride.

`CO[C@H]1O[C@@H]2O[C@@]3(C)CC[C@H]4[C@H](C)CC[C@@H]([C@H]1C)[C@@]24OO3`: the survival time turned out to be 23 days.
